Experimental findings from paper PMC5487351, “Galactosylsphingamides: new α-GalCer analogues to probe the F’-pocket of CD1d” (Scientific Reports, 2017) are described below.

The target in this experiment is T1, mCD1d (mCD1-β2M) (Mus musculus, UniProt P11609).
T1 construct: gene Cd1d1; soluble CD1d ectodomain with beta2-microglobulin, insect cells; glycolipid-loaded; with Beta-2-microglobulin
T1 sequence (P11609 19-297): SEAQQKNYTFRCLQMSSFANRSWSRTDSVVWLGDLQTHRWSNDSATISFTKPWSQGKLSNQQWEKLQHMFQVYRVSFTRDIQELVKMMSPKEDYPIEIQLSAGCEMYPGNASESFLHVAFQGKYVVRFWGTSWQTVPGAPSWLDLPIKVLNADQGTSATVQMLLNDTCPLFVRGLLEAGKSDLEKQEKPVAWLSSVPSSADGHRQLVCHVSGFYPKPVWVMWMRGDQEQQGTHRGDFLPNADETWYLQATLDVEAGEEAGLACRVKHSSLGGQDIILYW
T1 sequence (P01887 21-119 partner): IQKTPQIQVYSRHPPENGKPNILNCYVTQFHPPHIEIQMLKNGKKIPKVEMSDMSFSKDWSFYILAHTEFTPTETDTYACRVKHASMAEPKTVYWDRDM
Nature of the experiment: X-ray crystal structure, […] Å. The following applies: CD1d binding groove (A' and F' pockets); spacer lipid in A' pocket.

As to `CCCCCCCC(=O)N[C@@H](CO[C@H]1O[C@H](CO)[C@H](O)[C@H](O)[C@H]1O)[C@H](O)[C@H](O)CCCC(=O)NCCCCCCc1ccccc1` [5d, (5R,6S,7S)-5,6-dihydroxy-8-O-(α-D-galactopyranosyl)-7-octanamido-N-(6-phenylhexyl)octanamide], the “X-ray crystal structure, 1.75 Å” value is “we determined the crystal structure of the CD1d/5d-complex”.
